Assay results published in PubChem BioAssay (NCI).
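Assay format: 96-well plates, 48-hour exposure. Here, GI50 denotes the concentration required for 50% inhibition of growth. TGI is the concentration that stops growth completely.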

Legend:
Test in all cases: DTP human tumour cell line panel, 48 h
[1] = test system: SF-268 CNS
[2] = test system: HL-60(TB) leukemia
[3] = test system: KM12 colon
[4] = test system: SW-620 colon
[5] = test system: TK-10 renal
[6] = test system: SK-OV-3 ovarian
[7] = test system: DU-145 prostate
[8] = test system: CAKI-1 renal
[9] = test system: UO-31 renal
[10] = test system: A549 NSCLC
[11] = test system: RXF 393 renal
[12] = test system: UACC-257 melanoma
[13] = test system: OVCAR-5 ovarian
[14] = test system: SF-539 CNS
[15] = test system: HCT-116 colon
[16] = test system: HT29 colon
[17] = test system: U251 CNS
[18] = test system: COLO 205 colon
[19] = test system: SR leukemia
[20] = test system: OVCAR-4 ovarian
[21] = test system: HCC-2998 colon
[22] = test system: HCT-15 colon
[23] = test system: NCI-H522 lung
[24] = test system: SNB-19 CNS
[25] = test system: EKVX NSCLC
[26] = test system: HS 578T breast
[27] = test system: BT-549 breast
[28] = test system: OVCAR-3 ovarian
[29] = test system: UACC-62 melanoma
[30] = test system: NCI/ADR-RES ovarian
[31] = test system: SK-MEL-5 melanoma
[32] = test system: PC-3 prostate
[33] = test system: NCI-H460 lung
[34] = test system: MCF7 breast
[35] = test system: SNB-75 CNS
[36] = test system: MOLT-4 leukemia
[37] = test system: MDA-MB-231 breast
[38] = test system: NCI-H226 lung
[39] = test system: SK-MEL-28 melanoma
[40] = test system: A498 renal
[41] = test system: CCRF-CEM leukemia
[42] = test system: 786-0 renal
[43] = test system: LOX IMVI melanoma
[44] = test system: HOP-92 NSCLC
[45] = test system: MDA-MB-435
[46] = test system: RPMI-8226 leukemia
[47] = test system: K-562 leukemia
[48] = test system: MDA-MB-468 breast
[49] = test system: HOP-62 NSCLC
[50] = test system: ACHN renal
[51] = test system: IGROV1 ovarian
[52] = test system: SN12C renal
[53] = test system: SK-MEL-2 melanoma
[54] = test system: MALME-3M melanoma
[55] = test system: T-47D breast
[56] = test system: M14 melanoma
[57] = test system: OVCAR-8 ovarian
[58] = test system: NCI-H23 lung
[59] = test system: SF-295 CNS

Q: Which results are given for COc1ccc(CCN2C(=O)/C(=C/c3csc(C#N)n3)SC2=S)cc1?
A: GI50 [1]: 15 µM; TGI [1]: 32.7 µM; GI50 [2]: 14.5 µM; TGI [2]: 46.8 µM; GI50 [3]: 3.82 µM; TGI [3]: 14.1 µM; GI50 [4]: 8.45 µM; TGI [4]: 21.7 µM; GI50 [5]: 10.7 µM; TGI [5]: 27.7 µM; GI50 [6]: 18.8 µM; TGI [6]: 37.4 µM; GI50 [7]: 4.6 µM; TGI [7]: 15.6 µM; GI50 [8]: 16.9 µM; TGI [8]: 31.4 µM; GI50 [9]: 10.8 µM; TGI [9]: 22.6 µM; GI50 [10]: 21.3 µM; TGI [10]: 56.1 µM; GI50 [11]: 10.4 µM; TGI [11]: 22.1 µM; GI50 [12]: 11.7 µM; TGI [12]: 27.1 µM; GI50 [13]: 15.6 µM; TGI [13]: 29 µM; GI50 [14]: 10.5 µM; TGI [14]: 22.3 µM; GI50 [15]: 7.69 µM; TGI [15]: 20.7 µM; GI50 [16]: 14.1 µM; TGI [16]: 27.1 µM; GI50 [17]: 13.1 µM; TGI [17]: 26.4 µM; GI50 [18]: 16 µM; TGI [18]: 29.5 µM; GI50 [19]: 3.59 µM; TGI [19]: 32.4 µM; GI50 [20]: 15.5 µM; TGI [20]: 47 µM; GI50 [21]: 15.9 µM; TGI [21]: 29.4 µM; GI50 [22]: 6.19 µM; TGI [22]: 19.7 µM; GI50 [23]: 3.03 µM; TGI [23]: 14 µM; GI50 [24]: 14.9 µM; TGI [24]: 28.1 µM; GI50 [25]: 18.5 µM; TGI [25]: 34.4 µM; GI50 [26]: 21.8 µM; TGI [26]: 64.9 µM; GI50 [27]: 8.93 µM; TGI [27]: 21.7 µM; GI50 [28]: 10.1 µM; TGI [28]: 21.7 µM; GI50 [29]: 10.9 µM; TGI [29]: 22.9 µM; GI50 [30]: 15.9 µM; TGI [30]: 32.3 µM; GI50 [31]: 15.1 µM; TGI [31]: 28.3 µM; GI50 [32]: 12 µM; TGI [32]: 26.7 µM; GI50 [33]: 18.4 µM; TGI [33]: 39 µM; GI50 [34]: 4.31 µM; TGI [34]: 15.9 µM; GI50 [35]: 16.1 µM; TGI [35]: 31 µM; GI50 [36]: 3.52 µM; TGI [36]: 53.1 µM; GI50 [37]: 11.6 µM; TGI [37]: 24.1 µM; GI50 [38]: 14.5 µM; TGI [38]: 28.8 µM; GI50 [39]: 12.1 µM; TGI [39]: 24.5 µM; GI50 [40]: 16.7 µM; TGI [40]: 30.3 µM; GI50 [41]: 3.13 µM; TGI [41]: 9.66 µM; GI50 [42]: 10.2 µM; TGI [42]: 22.2 µM; GI50 [43]: 3.04 µM; TGI [43]: 10.5 µM; GI50 [44]: 2.13 µM; TGI [44]: 15.1 µM; GI50 [45]: 12.5 µM; TGI [45]: 28.3 µM; GI50 [46]: 4.29 µM; TGI [46]: 30.6 µM; GI50 [47]: 3.52 µM; TGI [47]: > 100 µM; GI50 [48]: 3.03 µM; TGI [48]: 13.2 µM; GI50 [49]: 17.5 µM; TGI [49]: 32 µM; GI50 [50]: 14.1 µM; TGI [50]: 27.1 µM; GI50 [51]: 17.9 µM; TGI [51]: 34.6 µM; GI50 [52]: 12.3 µM; TGI [52]: 24.8 µM; GI50 [53]: 12.2 µM; TGI [53]: 24.9 µM; GI50 [54]: 14.3 µM; TGI [54]: 28.9 µM; GI50 [55]: 5.7 µM; TGI [55]: 30.2 µM; GI50 [56]: 11.5 µM; TGI [56]: 25.1 µM; GI50 [57]: 15.2 µM; TGI [57]: 29.7 µM; GI50 [58]: 14.6 µM; TGI [58]: 27.7 µM; GI50 [59]: 17.3 µM; TGI [59]: 33.9 µM
